Experimental data: patent publication US9796733B2, “Imidazo-pyrazine derivatives useful as soluble guanylate cyclase activators” (Merck Sharp & Dohme Corp., priority 2014, dated 2017)

Biological target: T1, sGC α1/β1 heterodimer (Homo sapiens, UniProt Q02108+Q02153)
T1 construct: expressed in transfected cells; host or cells: CHO-K1 (clone #7, CHO-K1/sGC)
T1 sequence (Q02108 1-690): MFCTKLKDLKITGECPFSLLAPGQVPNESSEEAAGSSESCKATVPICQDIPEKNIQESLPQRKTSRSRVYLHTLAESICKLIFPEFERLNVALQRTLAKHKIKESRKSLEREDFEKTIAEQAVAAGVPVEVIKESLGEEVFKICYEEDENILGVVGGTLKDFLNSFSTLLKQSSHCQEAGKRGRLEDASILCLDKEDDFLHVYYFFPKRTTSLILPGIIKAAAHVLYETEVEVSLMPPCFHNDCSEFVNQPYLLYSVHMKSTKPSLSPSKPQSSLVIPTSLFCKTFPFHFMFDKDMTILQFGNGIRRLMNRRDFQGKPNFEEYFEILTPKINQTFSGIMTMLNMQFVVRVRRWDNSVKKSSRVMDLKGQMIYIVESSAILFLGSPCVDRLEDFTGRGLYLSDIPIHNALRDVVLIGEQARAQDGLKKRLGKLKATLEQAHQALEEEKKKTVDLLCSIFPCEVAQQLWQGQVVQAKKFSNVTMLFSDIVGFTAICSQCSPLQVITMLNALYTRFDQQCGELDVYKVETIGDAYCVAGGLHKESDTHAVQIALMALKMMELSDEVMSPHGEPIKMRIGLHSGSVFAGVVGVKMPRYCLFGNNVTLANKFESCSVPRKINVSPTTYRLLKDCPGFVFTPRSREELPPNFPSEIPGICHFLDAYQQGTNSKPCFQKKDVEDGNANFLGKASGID
T1 sequence (Q02153 1-619): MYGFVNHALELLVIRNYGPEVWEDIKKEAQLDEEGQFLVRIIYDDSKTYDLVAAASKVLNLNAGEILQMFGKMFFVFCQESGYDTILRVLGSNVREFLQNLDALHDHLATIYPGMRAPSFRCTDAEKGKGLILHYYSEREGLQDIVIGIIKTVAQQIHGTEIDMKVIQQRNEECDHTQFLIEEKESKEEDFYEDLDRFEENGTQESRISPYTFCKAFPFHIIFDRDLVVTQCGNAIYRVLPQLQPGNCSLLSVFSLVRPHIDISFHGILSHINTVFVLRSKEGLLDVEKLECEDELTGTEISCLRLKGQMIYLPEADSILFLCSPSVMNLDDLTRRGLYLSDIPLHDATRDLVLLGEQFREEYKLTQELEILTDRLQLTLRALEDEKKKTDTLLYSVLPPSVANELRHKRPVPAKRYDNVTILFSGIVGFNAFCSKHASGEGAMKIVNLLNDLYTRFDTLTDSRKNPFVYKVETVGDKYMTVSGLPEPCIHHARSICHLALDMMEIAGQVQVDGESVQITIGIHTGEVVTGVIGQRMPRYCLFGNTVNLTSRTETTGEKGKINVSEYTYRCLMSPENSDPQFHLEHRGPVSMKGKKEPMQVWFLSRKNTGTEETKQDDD
Test: Cell-based sGC functional assay (CASA assay): cGMP generation in CHO-K1/sGC cells, HTRF detection
Settings: for EC50: inflection point (IP) of cGMP generation in CHO-K1/sGC cells, 4P fit, activity expressed as percentage of Compound A; for % Act.: percent activation relative to standard Compound A in CHO-K1/sGC cells; for Emax: CHO-K1, percent activation relative to standard Compound A in CHO-K1/sGC cells, read-out: % Act.
Excerpt: Biological Assay 1: Cell-Based sGC Functional Assay (CASA Assay)
sGC is a heme-containing enzyme that converts GTP to secondary messenger cGMP. Increases in cGMP levels affect several physiological processes including vasorelaxation through multiple downstream pathways. […] Heme-dependent activators (HDAs) preferentially activate sGC containing a ferrous heme group. To determine the effect of sGC activators on enzyme activity, the CASA assay was developed to monitor the generation of cGMP in a cell line that stably expresses the heterodimeric sGC protein.
A CHO-K1 cell line stably expressing the sGC α1/β1 heterodimer was generated using a standard transfection protocol. CHO-K1 cells were transfected with plasmids pIREShyghsGCal and pIRESneo-hsGCβ1 simultaneously using FUGENE reagent. Clones that stably express both subunits were selected with hygromycin and neomycin for 2 weeks. Clone #7 was chosen for the assay and was designated CHO-K1/sGC. CHO-K1/sGC cells were maintained in F-K12 medium containing 10% heat-inactivated Fetal Bovine Serum (FBS), 100 μg/mL penicillin/streptomycin, 0.5 mg/mL hygromycin and 0.25 mg/mL G418. The cells were then cryopreserved in LN2. On the day of the assay, cells thawed and resuspended in EBSS Assay Buffer (Sigma, E3024) supplemented with 5 mM MgCl2, 10 mM HEPES (4-(2-hydroxyethyl)piperazine-1-ethanesulfonic acid) and 0.05% BSA (bovine serum albumin) (EAB) and cell density was then adjusted to 4×10^5/mL with EAR IBMX (3-isobutyl-1-methylxanthin, 0.5 mM) was added to inhibit degradation of cGMP. Compounds were diluted from DMSO stock solutions and added to the assay at a final DMSO concentration of 2.5%. Cells were incubated with compounds in the presence and absence of 1 μM of Diethylenetriamine/nitric oxide adduct (DETA-NO; Sigma, 17018) for 1 hr at 37° C. At the end of the incubation period, the reaction was terminated and the cells were lysed with the detection reagents from Cisbio Kits. The level of intracellular cGMP was determined using an HTRF-based assay kit (CisBio, 62GM2PEC), which detects the displacement of a fluorescence labeled cGMP from its specific antibody. The cGMP produced by test compounds was directly compared to the maximum cGMP production (this value was set to equal 100% activation.) of the published sGC-HDA Compound A:
[drawing 597] (Example 1 in WO 2010/065275, published Jun. 10, 2010). The test compounds' activities were then expressed as a percentage of Compound A, the standard in every experiment. This percent activation was calculated either in the presence or absence of DETA-NO which was then plotted. IP and maximum fold induction was derived using ADA analysis software for 4P fit.
The compounds in the Examples of the instant invention had inflection points (IP) less than or equal to 10 μM and more particularly less than or equal to about 1 μM.

Compound | EC50 [nM] | % Act. [%] | Emax [%]
Nc1nc(-c2cn3ccnc3c(Cc3ccc(F)cc3)n2)nc2c1C(c1ccc(Cl)cn1)(C1CC1)C(=O)N2 (single isomer, unassigned) [Example 108A, 4-amino-5-(5-chloropyridin-2-yl)-5-cyclopropyl-2-(8-(4-fluorobenzyl)imidazo[1,2-a]pyrazin-6-yl)-5H-pyrrolo[2,3-d]pyrimidin-6(7H)-one] | 12 | 121 | –
Nc1nc(-c2cn3ccnc3c(Cc3ccc(F)cc3)n2)nc2c1C(c1ccc(Cl)cn1)(C1CC1)C(=O)N2 (single isomer, unassigned) [Example 108B, 4-amino-5-(5-chloropyridin-2-yl)-5-cyclopropyl-2-(8-(4-fluorobenzyl)imidazo[1,2-a]pyrazin-6-yl)-5H-pyrrolo[2,3-d]pyrimidin-6(7H)-one] | 16 | 79 | –
Nc1nc(-c2cn3ccnc3c(Cc3ccccc3F)n2)nc2c1C(c1ccc(Cl)cn1)(C1CC1)C(=O)N2 (single isomer, unassigned) [Example 110B, 4-amino-5-(5-chloropyridin-2-yl)-5-cyclopropyl-2-(8-(2-fluorobenzyl)imidazo[1,2-a]pyrazin-6-yl)-5H-pyrrolo[2,3-d]pyrimidin-6(7H)-one] | 11 | – | 151
COC(=O)c1cccc(C2(C)C(=O)Nc3nc(-c4cn5ccnc5c(CCC(F)(F)C(F)(F)F)n4)nc(N)c32)c1 (single isomer, unassigned) [Example 270B, Methyl 3-(4-amino-5-methyl-6-oxo-2-(8-(3,3,4,4,4-pentafluorobutyl)imidazo[1,2-a]pyrazin-6-yl)-6,7-dihydro-5H-pyrrolo[2,3-d]pyrimidin-5-yl)benzoate] | 319 | – | 101
CC1(c2ccc(Cl)cc2)C(=O)Nc2nc(-c3cn4ccnc4cn3)nc(N3CC(F)(F)C3)c21 (single isomer, unassigned) [Example 277A] | 469 | – | 106
CC(C)c1nc(C2(C)C(=O)Nc3nc(-c4cn5ccnc5c(CCC(F)(F)C(F)(F)F)n4)nc(N)c32)no1 (single isomer, unassigned) [Example 321B, 4-amino-5-(5-isopropyl-1,2,4-oxadiazol-3-yl)-5-methyl-2-(8-(3,3,4,4,4-pentafluorobutyl)imidazo[1,2-a]pyrazin-6-yl)-5H-pyrrolo[2,3-d]pyrimidin-6(7H)-one] | 237 | – | 126
Cn1nnnc1C1(C2CC2)C(=O)Nc2nc(-c3cn4ccnc4c(CCC(F)(F)C(F)(F)F)n3)nc(N)c21 (single isomer, unassigned) [Example 325A, 4-amino-5-cyclopropyl-5-(1-methyl-1H-tetrazol-5-yl)-2-(8-(3,3,4,4,4-pentafluorobutyl)imidazo[1,2-a]pyrazin-6-yl]-5H-pyrrolo[2,3-d]pyrimidin-6(7H)-one] | 1210 | – | 83
COc1ccc(C2(C3CC3)C(=O)Nc3nc(-c4cn5ccnc5c(CCC(F)(F)C(F)(F)F)n4)nc(N)c32)nc1 (single isomer, unassigned) [Example 337A, 4-amino-5-cyclopropyl-5-(5-methoxypyridin-2-yl)-2-(8-(3,3,4,4,4-pentafluorobutyl)imidazo[1,2-a]pyrazin-6-yl)-5H-pyrrolo[2,3-d]pyrimidin-6(7H)-one] | 486 | – | 189
Cc1ncc(C2(C3CC3)C(=O)Nc3nc(-c4cn5ccnc5c(CCC(F)(F)C(F)(F)F)n4)nc(N)c32)cn1 (single isomer, unassigned) [Example 348B, 4-amino-5-cyclopropyl-5-(2-methylpyrimidin-5-yl)-2-(8-(3,3,4,4,4-pentafluorobutyl)imidazo[1,2-a]pyrazin-6-yl)-5H-pyrrolo[2,3-d]pyrimidin-6(7H)-one] | 1550 | – | 175
Nc1nc(-c2cn3ccnc3c(CCC(F)(F)C(F)(F)F)n2)nc2c1C(c1ccc(Cl)cc1)(C1CCC1)C(=O)N2 (single isomer, unassigned) [Example 350B, 4-amino-5-(4-chlorophenyl)-5-cyclobutyl-2-(8-(3,3,4,4,4-pentafluorobutyl)imidazo[1,2-a]pyrazin-6-yl)-5H-pyrrolo[2,3-d]pyrimidin-6(7H)-one] | 105 | – | 239
Nc1nc(-c2cn3ccnc3c(CCC(F)(F)F)n2)nc2c1C(c1ccc(Cl)cc1)(C1CCC1)C(=O)N2 (single isomer, unassigned) [Example 351B, 4-amino-5-(4-chlorophenyl)-5-cyclobutyl-2-(8-(3,3,3-trifluoropropyl)imidazo[1,2-a]pyrazin-6-yl)-5H-pyrrolo[2,3-d]pyrimidin-6(7H)-one] | 985 | – | 182
CCCCc1nc(-c2nc(N)c3c(n2)NC(=O)C3(c2cnc(C)cn2)C2CC2)cn2ccnc12 (single isomer, unassigned) [Example 352B, 4-amino-2-(8-butylimidazo[1,2-a]pyrazin-6-yl)-5-cyclopropyl-5-(5-methylpyrazin-2-yl)-5H-pyrrolo[2,3-d]pyrimidin-6(7H)-one] | 302 | – | 96
Cc1cnc(C2(C3CC3)C(=O)Nc3nc(-c4cn5ccnc5c(CCCC(F)(F)F)n4)nc(N)c32)cn1 (single isomer, unassigned) [Example 357B, 4-amino-5-cyclopropyl-5-(5-methylpyrazin-2-yl)-2-(8-(4,4,4-trifluorobutyl)imidazo[1,2-a]pyrazin-6-yl)-5H-pyrrolo[2,3-d]pyrimidin-6(7H)-one] | 680 | – | 113
CCCCc1nc(-c2nc(N)c3c(n2)NC(=O)C3(c2ccc(Cl)cc2)C2CCC2)cn2ccnc12 (single isomer, unassigned) [Example 358B, 4-amino-2-(8-butylimidazo[1,2-a]pyrazin-6-yl)-5-(4-chlorophenyl)-5-cyclobutyl-5H-pyrrolo[2,3-d]pyrimidin-6(7H)-one] | 20 | – | 120
